The text below walks through data of patent US20240409934A1, “FOXO1-TARGETED THERAPY FOR THE TREATMENT OF CANCER” (BOARD OF REGENTS, THE UNIVERSITY OF TEXAS SYSTEM, priority 2021, published 2024).

Holding throughout (assay): Gene expression by qRT-PCR (TUBB reference)
What all share (format): cell-based
A general note: Quantitative PCR measures a nucleic acid by following its amplification.

Test [1] has as its system DBTRG. As to conditions: 1 μM for 48 hours. The protocol:
(§1) Cell culture and drug treatments. Cell lines were obtained from ATCC (American Type Culture Collection, Manassas, VA) and grown under standard conditions (5% CO2, 10% FBS (fetal bovine serum), with 5% antifungal/antibacterial). Cell lines were tested for Mycoplasma using the MycoAlert Mycoplasma Detection Kit (Lonza, Basel Switzerland, cat: LT07-218); all experiments were done with mycoplasma negative cells. U87MG cells were propagated in MEM (Minimal Essential Medium). BT549 and DBTRG cells were propagated in RPMI (Roswell Park Memorial Institute 1640 Medium). LN18, U118MG, A172 and LN229 cells were propagated in DMEM (Dulbecco's Modified Eagle Medium). Neurosphere/cancer stem cell cultures for U87MG and BT549 cell lines were plated with 40,000 cells per mL in 3D Tumorsphere Medium XF (Sigma cat: C-28070, Burlington, MA). BT549 cancer stem cell cultures were supplemented with 1XB27 XenoFree CTS (Gibco/Thermo Fisher Waltham, MA, USA). AS1842856 was purchased from Calbiochem (Danvers, MA) and utilized at 200 nM, 500 nM and 1 μM final concentrations as indicated. AS1708727 was purchased from MedChem Express (Monmouth Junction, NJ) and was used at 0.5 μM, 1.0 µM and 2.0 μM concentrations. 5-aza-2′-deoxycytidine (5-AZA) was purchased from Millipore/Sigma (Burlington, MA) and utilized at a final concentration of 3 μM. Total RNA was prepared using the Qiagen RNeasy kit (Hilden, Germany), which was then used to generate cDNA using Superscript Reverse Transcriptase II (Invitrogen, Carlsbad, CA). Samples (cDNAs) were analyzed using (Power SYBR Green Master Mix, Applied Biosystems, Foster City, CA) and the ABI Step-One Real-time system (Carlsbad, CA). Expression levels were normalized to Beta-Tubulin, TUBB in gene expression experiments and calculated using 2-4ACT method (Livak et al., 2001). Primer sequences are detailed in Table 1.

Test [2] relates to U87MG cells. The protocol: as §1
Test [3] deals with LN229. As to conditions: 1 μM for 48 hours. The protocol: as §1
Test [4] has as its system LN18. Conditions: 1 μM for 48 hours. The protocol:
as §1

Test [5] concerns A172. As to conditions: 1 μM for 48 hours. The protocol: as §1

Consider `CCn1cc(C(=O)O)c(=O)c2c(N)c(F)c(NC3CCCCC3)cc21` [AS1842856, 5-Amino-7-(cyclohexylamino)-1-ethyl-6-fluoro-4-oxo-1,4-dihydroquinoline-3-carboxylic acid], for which the “apoptotic genes FAS and/or BIM expression” value in test [1], in test [2] (1 μM for 48 hours), in test [3], in test [4] and in test [5] was “induced apoptotic genes FAS and/or BIM” throughout. Further, the FAS expression result in test [2] is reported as “induced”.
